Results taken from US20080139628A1 (ARENA PHARMACEUTICALS, INC., priority 2004, published 2008).
Each block holds one compound with its values, some of them ahead of it.

Key:
[1] = test system: niacin-induced flushing in mice; assay: Block of niacin-induced flushing in mice, Laser Dopler; assay type: in vivo; conditions: for change from baseline (flush) at 3 minutes / change above baseline (flush) at 15 minutes: mice given compound about 10 minutes before niacin; for change from baseline (flush) at 3 minutes: 3 minutes after niacin; for change above baseline (flush) at 15 minutes: at/within 15 minutes after niacin
Procedure: Flushing was measured using a Laser Dopler.
In these experiments, the control group contained anesthetized mice that were administered niacin alone and flushing above baseline was measured over time. […]

mice = assay: Flush in response to PGD2 in mice treated with niacin receptor partial agonist; assay type: in vivo; conditions: mice pretreated with Compound 1 and niacin
Procedure: After re-establishment of baseline, PGD2 was administered and flushing was recorded. […] Baseline was then re-established at 20% above baseline and PGD2 was administered.

free fatty acid release = assay: NEFA competition: free fatty acids in blood of mice (NEFA-C assay kit); assay type: in vivo; conditions: for concentration of free fatty acid: blood after 10 minutes (vehicle sample 0.9 mM)
Procedure: After 10 minutes the mice were euthanized and blood was collected. The blood samples were processed and tested for free fatty acid release using the non-esterified fatty-acid (NEFA) assay (the NEFA-C assay kit from Waco Chemicals USA, Richmond, Va.).

[2] = test system: dysmenorrhea or painful menstruation; conditions: 80 women, 100 mg niacin twice daily, then every 2 to 3 hours during heavy cramps; cited from earlier work

SMILES: O=C(O)c1cc(Cc2cccc(Cl)c2)[nH]n1 [Compound 3, 5-(3-Chloro-benzyl)-1H-pyrazole-3-carboxylic acid]
change from baseline (flush) at 3 minutes [1]: about 18% | change above baseline (flush) at 15 minutes [1]: about 13%

time of flush peak after PGD2 administration (mice): about 6 minutes | time after PGD2 administration at which flushing began (mice; baseline re-established at 20% above baseline): about 1.5 minutes | flush peak, % of the original baseline (mice; about 6 minutes after PGD2): about 70%
SMILES: CCCCC[C@H](O)/C=C/[C@H]1C(=O)C[C@H](O)[C@@H]1C/C=C\CCCC(=O)O [PGD2, prostaglandin D2]

SMILES: C1Cc2[nH]nc(-c3nnn[nH]3)c2C1 [Compound 1, 3-(1H-Tetrazol-5-yl)-1,4,5,6-tetrahydro-cyclopentapyrazole]
change from baseline (flush) at 3 minutes [1]: 10% | change above baseline (flush) at 15 minutes [1]: about 20% | flushing induced by niacin ([1]; mice, partial agonist given prior to niacin): significantly reduced | interference with the reduction in free fatty acids induced by niacin (free fatty acid release; Compound 1 plus niacin): does not interfere | concentration of free fatty acid (free fatty acid release; Compound 1 plus niacin): 0.38 mM

SMILES: O=C(O)c1cc(Cc2cccc(F)c2)[nH]n1 [Compound 2, 5-(3-Fluoro-benzyl)-1H-pyrazole-3-carboxylic acid]
change from baseline (flush) at 3 minutes [1]: 0% | change above baseline (flush) at 15 minutes [1]: about 15%

SMILES: O=C(O)c1cc(Cc2cccc(Br)c2)[nH]n1 [Compound 4, 5-(3-Bromo-benzyl)-1H-pyrazole-3-carboxylic acid]
change from baseline (flush) at 3 minutes [1]: 15% | change above baseline (flush) at 15 minutes [1]: about 30%

time after which mice began to flush ([1]; anesthetized mice, niacin alone): 1.5 min
SMILES: O=C(O)c1cccnc1 [niacin, nicotinic acid, reference compound]
concentration of free fatty acid (free fatty acid release; vehicle plus niacin): 0.4 mM | subjects who experienced significant relief [2]: About 90%
